In assay [1] the target is T1, P2X7 (Homo sapiens (Human), UniProt Q99572). The experiment in a line: Ca2+ flux (FLIPR) in 1321N1 cells expressing recombinant human P2X7 channel.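 Note: Calcium-4 dye-loaded cells exposed to compound for 30 min before agonist addition, fluorescence change read 180 s after agonist.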 The conditions noted are these: 250 μM BzATP. The class given is cell-based.
Protocol: (§1) Cells were seeded at a density of 25000 cells/well (96-well clear bottom black walled plates) in 100 μl volume/well. On the day of the experiment, cell plates were washed with assay buffer, containing (in mM): 130 NaCl, 2 KCl, 1 CaCl2, 1 MgCl2, 10 HEPES, 5 glucose; pH 7.40 and 300 mOs. After the wash, cells were loaded with the Calcium-4 dye (Molecular Device) and incubated in the dark for 60 minutes. Test compounds were prepared at 250× the test concentration in neat DMSO. Intermediate 96-well compound plates were prepared by transferring 1.2 μL of the compound into 300 μL of assay buffer. A further 3× dilution occurred when transferring 50 μL/well of the compound plate to 100 μL/well in the cell plate. Cells were incubated with test compounds and dye for 30 minutes. […] The fluorescence change was measured 180 seconds after adding the agonist.
Assay [2] concerns the target T1, P2X7. Put plainly: Radioligand binding, tritiated A-804598, human P2X7-1321N1 cell membranes.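 Note: ki obtained from the binding IC50 after correction for tracer concentration and tracer affinity.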 The conditions noted are these: 1 hour at 4° C.
Protocol: On the day of the experiment, cell membrane preparations were made according to standard published methods. […] The assay was terminated by filtration (GF/B filters pre-soaked with 0.3% PEI) and washed with washing buffer (Tris-HCl 50 mM). The IC50 generated in the binding assay was corrected for tracer concentration and affinity of the tracer to derive at the affinity (Ki) of the test compounds.
The target of assay [3] is T1, P2X7. Put plainly: P2X7 antagonism in human PBMCs (LPS + Bz-ATP induced IL-1β release, ELISA).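 For all read-outs here: PBMCs from donor human blood, with a further 1.5 h incubation of the cells in the assay.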 The class given is cell-based. The conditions noted are these: LPS 30 ng/ml, Bz-ATP 0.5 mM; for PBMC 10 μM (% control): compound 10 μM; for PBMC 1 μM (% control): compound 1 μM. (In general: ELISA stands for enzyme-linked immunosorbent assay.)
In the next assay the target is rat P2X7 (Rattus norvegicus (Rat), UniProt Q64663). Put plainly: Ca2+ flux (FLIPR) in 1321N1 cells expressing recombinant rat P2X7 channel.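 Note: Calcium-4 dye fluorescence change read 180 s after agonist addition, following 30 min cell preincubation with test compound.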 The class given is cell-based. The note with it: 250 μM BzATP. On the technique in general: Calcium assays in cells follow changes in intracellular calcium, usually with a dye or a luminescent sensor.

Each structure is given as a SMILES string.

T1 sequence (Q99572 whole entry): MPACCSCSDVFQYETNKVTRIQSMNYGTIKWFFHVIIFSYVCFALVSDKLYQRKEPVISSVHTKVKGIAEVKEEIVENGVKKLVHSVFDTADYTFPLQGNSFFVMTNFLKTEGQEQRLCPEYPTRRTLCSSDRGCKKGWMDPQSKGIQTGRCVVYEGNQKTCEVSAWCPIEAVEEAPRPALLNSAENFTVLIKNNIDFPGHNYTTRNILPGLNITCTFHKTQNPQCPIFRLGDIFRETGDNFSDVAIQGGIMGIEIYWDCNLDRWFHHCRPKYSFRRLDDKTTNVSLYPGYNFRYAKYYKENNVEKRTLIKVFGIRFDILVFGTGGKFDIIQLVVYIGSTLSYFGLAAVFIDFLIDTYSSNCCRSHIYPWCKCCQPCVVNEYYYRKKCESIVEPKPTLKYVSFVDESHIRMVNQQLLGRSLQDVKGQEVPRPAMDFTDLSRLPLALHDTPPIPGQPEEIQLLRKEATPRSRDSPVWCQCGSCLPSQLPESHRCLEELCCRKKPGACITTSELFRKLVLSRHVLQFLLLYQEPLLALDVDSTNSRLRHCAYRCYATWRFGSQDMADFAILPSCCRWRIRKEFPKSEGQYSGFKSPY
Chain of rat P2X7 (Q64663 whole entry): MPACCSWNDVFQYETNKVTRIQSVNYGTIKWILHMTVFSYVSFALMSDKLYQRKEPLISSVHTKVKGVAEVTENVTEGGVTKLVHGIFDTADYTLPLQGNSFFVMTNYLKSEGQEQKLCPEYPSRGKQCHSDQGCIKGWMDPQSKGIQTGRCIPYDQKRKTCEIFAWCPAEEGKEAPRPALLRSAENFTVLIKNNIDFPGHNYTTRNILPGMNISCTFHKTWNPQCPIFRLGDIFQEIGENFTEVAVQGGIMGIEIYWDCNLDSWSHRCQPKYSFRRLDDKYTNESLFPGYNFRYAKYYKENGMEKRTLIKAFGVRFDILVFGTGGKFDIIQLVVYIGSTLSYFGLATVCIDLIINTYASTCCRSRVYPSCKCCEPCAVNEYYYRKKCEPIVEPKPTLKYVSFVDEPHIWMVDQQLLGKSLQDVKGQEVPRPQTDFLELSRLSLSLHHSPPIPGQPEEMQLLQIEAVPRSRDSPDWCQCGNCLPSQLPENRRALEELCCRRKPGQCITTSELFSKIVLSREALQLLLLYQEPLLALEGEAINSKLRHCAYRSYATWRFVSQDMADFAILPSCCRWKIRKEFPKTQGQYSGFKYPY
Protocol for rat P2X7: as §1

As a reminder, the IC50 is the concentration needed to halve the response being measured. As a reminder, the Ki is a dissociation constant, usually derived from enzyme kinetics or from competition with a known ligand. Take `C[C@H]1c2nnn(-c3ccccn3)c2CCN1C(=O)c1ccc(F)c(Cl)c1Cl` (single isomer, unassigned) [Example 142, (S*)-(2,3-Dichloro-4-fluorophenyl)(4-methyl-1-(pyridin-2-yl)-6,7-dihydro-1H-[1,2,3]triazolo[4,5-c]pyridin-5(4H)-yl)methanone]: the 50% inhibitory concentration (IC50) at P2X7 [1] came out at 2 nM. Further, the affinity on P2X7 [2] corresponds to a Ki of 10 nM. In addition, on P2X7 [3], the “PBMC 10 μM (% control)” value came to 33.8 % control.
In the case of `C[C@@H]1Cc2c(nnn2-c2cc(F)ccn2)CN1C(=O)c1cccc(C(F)(F)F)c1Cl` (single isomer, unassigned) [Example 198, (6R*)-5-{[2-Chloro-3-(trifluoromethyl)phenyl]carbonyl}-1-(4-fluoropyridin-2-yl)-6-methyl-4,5,6,7-tetrahydro-1H-[1,2,3]triazolo[4,5-c]pyridine], the IC50 on P2X7 [1] is 180 nM. Moreover, on P2X7 [2], the inhibitory constant (Ki) is 631 nM. In addition, the “PBMC 10 μM (% control)” value at P2X7 [3] is listed as 1.3 % control.
Regarding `C[C@H]1Cc2c(nnn2-c2cc(F)ccn2)CN1C(=O)c1cccc(C(F)(F)F)c1Cl` (single isomer, unassigned) [Example 199, (6S*)-5-{[2-Chloro-3-(trifluoromethyl)phenyl]carbonyl}-1-(4-fluoropyridin-2-yl)-6-methyl-4,5,6,7-tetrahydro-1H-[1,2,3]triazolo[4,5-c]pyridine], on P2X7 [1], the IC50 amounted to 8.6 nM. Further, the Ki on P2X7 [2] came out at 39.8 nM. Further, the “PBMC 10 μM (% control)” value at P2X7 [3] came to 0.0 % control.
Take `C[C@H]1Cc2c(nnn2-c2ncc(F)cn2)CN1C(=O)c1ccc(Cl)c(F)c1Cl` (single isomer, unassigned) [Example 218, (6S*)-5-[(2,4-Dichloro-3-fluorophenyl)carbonyl]-1-(5-fluoropyrimidin-2-yl)-6-methyl-4,5,6,7-tetrahydro-1H-[1,2,3]triazolo[4,5-c]pyridine]: the affinity on P2X7 [2] corresponds to a Ki of 2.5 nM. The “PBMC 10 μM (% control)” value at P2X7 [3] worked out at 6.1 % control.
For the molecule `O=C(c1cccc(C(F)(F)F)c1Cl)N1CCc2c(ncn2-c2ccccn2)C1` [Example 1, (2-Chloro-3-(trifluoromethyl)phenyl)(1-(pyridin-2-yl)-6,7-dihydro-1H-imidazo[4,5-c]pyridin-5(4H)-yl)methanone], on P2X7 [1], the IC50 amounted to 6.1 nM. Also, the affinity on P2X7 [2], expressed as Ki, was 75.9 nM. Besides, the “PBMC 1 μM (% control)” value on P2X7 [3] amounted to 11.5 % control.
The corresponding values for `O=C(c1cccc(C(F)(F)F)c1Cl)N1CCc2c(ncn2-c2cnccn2)C1` [Example 6, (2-Chloro-3-(trifluoromethyl)phenyl)(1-(pyrazin-2-yl)-6,7-dihydro-1H-imidazo[4,5-c]pyridin-5(4H)-yl)methanone] are 9.4 nM, 42.7 nM and 14.3 % control.
For the molecule `CCC1c2ncn(-c3cnccn3)c2CCN1C(=O)c1cccc(C(F)(F)F)c1Cl` (stereo not shown) [Example 15, (2-Chloro-3-(trifluoromethyl)phenyl)(4-ethyl-1-(pyrazin-2-yl)-6,7-dihydro-1H-imidazo[4,5-c]pyridin-5(4H)-yl)methanone], the IC50 on P2X7 [1] amounted to 87.5 nM. Also, affinity on P2X7 [2] was put at a Ki of 158 nM. The “PBMC 1 μM (% control)” value at P2X7 [3] turned out to be 9.1 % control.
In the case of `CC1c2ncn(-c3ncccc3F)c2CCN1C(=O)c1cccc(C(F)(F)F)c1Cl` (stereo not shown) [Example 21, (2-Chloro-3-(trifluoromethyl)phenyl)(1-(3-fluoropyridin-2-yl)-4-methyl-6,7-dihydro-1H-imidazo[4,5-c]pyridin-5(4H)-yl)methanone], at P2X7 [1], the IC50 is 78.5 nM. The Ki on P2X7 [2] stood at 126 nM. For the same molecule, the “PBMC 10 μM (% control)” value at P2X7 [3] came to 1.6 % control.
On to `O=C(c1cccc(C(F)(F)F)c1F)N1CCc2c(nc(C(F)(F)F)n2-c2ccccc2)C1` [Example 57, 5-{[2-Fluoro-3-(trifluoromethyl)phenyl]carbonyl}-1-phenyl-2-(trifluoromethyl)-4,5,6,7-tetrahydro-1H-imidazo[4,5-c]pyridine], for which the IC50 on P2X7 [1] came to 718 nM. Affinity on P2X7 [2] was put at a Ki of 794 nM. Besides, the “PBMC 10 μM (% control)” value on P2X7 [3] worked out at 46.7 % control.
With `O=C(c1cccc(Cl)c1Cl)N1CCc2c(ncn2-c2ccn[nH]2)C1` [Example 60, 5-[(2,3-Dichlorophenyl)carbonyl]-1-(1H-pyrazol-5-yl)-4,5,6,7-tetrahydro-1H-imidazo[4,5-c]pyridine], on P2X7 [1], the IC50 is 55.7 nM. The same molecule registered an inhibition constant (Ki) on P2X7 [2] of 100 nM. Besides, at P2X7 [3], the “PBMC 10 μM (% control)” value is 8.4 % control.
The corresponding values for `O=C(c1cccc(C(F)(F)F)c1Cl)N1CCc2c(nnn2-c2ncc(F)cn2)C1` [Example 64, 5-{[2-Chloro-3-(trifluoromethyl)phenyl]carbonyl}-1-(5-fluoropyrimidin-2-yl)-4,5,6,7-tetrahydro-1H-[1,2,3]triazolo[4,5-c]pyridine] are 14.3 nM, 31.6 nM and −9.2 % control.
As to `O=C(c1cccc(C(F)(F)F)c1Cl)N1CCc2c(nnn2-c2cnccn2)C1c1ccccc1` (stereo not shown) [Example 77, 5-{[2-Chloro-3-(trifluoromethyl)phenyl]carbonyl}-4-phenyl-1-pyrazin-2-yl-4,5,6,7-tetrahydro-1H-[1,2,3]triazolo[4,5-c]pyridine], the affinity on P2X7 [2], expressed as Ki, was 398 nM. The “PBMC 1 μM (% control)” value on P2X7 [3] was found to be 31.7 % control. The IC50 on rat P2X7 is 6.3 nM.
Consider `Cn1nc(-c2ccccc2)c2c1CN(C(=O)c1cccc(Cl)c1Cl)CC2` [Example 103, 6-[(2,3-Dichlorophenyl)carbonyl]-1-methyl-3-phenyl-4,5,6,7-tetrahydro-1H-pyrazolo[3,4-c]pyridine], for which, at P2X7 [1], the IC50 stood at 392 nM. This molecule showed a Ki on P2X7 [2] of 275 nM. For the same molecule, the “PBMC 1 μM (% control)” value on P2X7 [3] came to 56.0 % control.
Turning to `Cn1nc(-c2cccnc2)c2c1CN(C(=O)c1cccc(C(F)(F)F)c1Cl)CC2` [Example 108, 6-{[2-Chloro-3-(trifluoromethyl)phenyl]carbonyl}-1-methyl-3-pyridin-3-yl-4,5,6,7-tetrahydro-1H-pyrazolo[3,4-c]pyridine], the affinity at P2X7 [2], expressed as Ki, was 100 nM. Further, at P2X7 [3], the “PBMC 1 μM (% control)” value is listed as 1.1 % control. The IC50 at rat P2X7 worked out at 794 nM.
For `O=C(c1cccc(C(F)(F)F)c1Cl)N1CCc2c(-c3ccc(F)cc3)n[nH]c2C1` [Example 110, 6-{[2-Chloro-3-(trifluoromethyl)phenyl]carbonyl}-3-(4-fluorophenyl)-4,5,6,7-tetrahydro-2H-pyrazolo[3,4-c]pyridine], the concentration for half-maximal inhibition (IC50) on P2X7 [1] came to 10 nM. The Ki on P2X7 [2] is 182 nM. At P2X7 [3], the “PBMC 1 μM (% control)” value is recorded as −15.1 % control.
The corresponding values for `O=C(c1cccc(C(F)(F)F)c1Cl)N1CCc2c(nnn2-c2ccccc2OCCF)C1` [Example 126, (2-Chloro-3-(trifluoromethyl)phenyl)(1-(2-(2-fluoroethoxy)phenyl)-6,7-dihydro-1H-[1,2,3]triazolo[4,5-c]pyridin-5(4H)-yl)methanone] are 85.5 nM, 93.3 nM and 71.7 % control.
In turn, `CC1Cc2c(nnn2-c2ncc(F)cn2)CN1C(=O)c1ccc(Cl)c(F)c1Cl` (stereo not shown) [Example 216, 5-[(2,4-Dichloro-3-fluorophenyl)carbonyl]-1-(5-fluoropyrimidin-2-yl)-6-methyl-4,5,6,7-tetrahydro-1H-[1,2,3]triazolo[4,5-c]pyridine] had a Ki at P2X7 [2] of 12.6 nM. For the same molecule, the “PBMC 10 μM (% control)” value on P2X7 [3] amounted to 0.6 % control.
